How the values were obtained:
Type in all cases: cell-based, human
[1] = test system: H157 (non-small cell lung carcinoma) cells; assay: Polyamine levels in H157 cells following treatment; conditions: for Polyamine Level, Spm: spermine (Spm)
Method: (§1) Putrescine, spermidine, and spermine polyamine levels in H157 and H82 cells following exposure to select compounds were performed. Polyamine levels were determined using the precolumn dansylation labeling, reverse-phase high-pressure liquid chromatography method as described by Kabra et al., J. Chromotography, 380:19 (1986). The results are show in Tables 6 and 11 for H157 and H82 cells respectively. The compound identifier, treatment concentration, observed polyamine level, and exposure time are listed in columns 1, 2, 3, and 4 respectively. Polyamine levels are reported as increased (inc), decrease (dec), or no change (N/C). In some case the specific levels of putrescine, spermidine, and/or spermine are listed.

[2] = test system: H82 cells; assay: Polyamine levels in H82 cells following treatment; conditions: 24 hr
Method: as §1

[3] = test system: H157 (non-small cell lung carcinoma) cells; assay: 96 hr MTS dose response experiment in H157 cells; conditions: a range means IC50 lies between the two tested concentrations
Method: MTS dose response experiments in H157, H82, and A549 cells following a 96 hr exposure with select compounds were performed. MTS is a standard colorimetric assay used for measuring metabolic activity in cells. MTS experiments were performed by CellTiter 96® AQueuos One Solution Cell Proliferation Assay from Promega Corporation. Briefly, the cells were seeded at 3000 cells/well on a 96 well tissue culture plate containing 100 ul of medium/well and allowed to attach overnight. The medium was then aspirated and replaced with 100 ul of fresh medium containing the appropriate concentration of the compound being tested and incubated for 96 hrs at 37° C. and 5% CO2. Compounds are routinely tested at concentrations ranging from 0.1 micromolar to 50 micromolar. Wells not containing the test compound were present and used as a control. Following treatment, 20 ul of MTS reagent was added to each well and incubated at 37° C. for 1.5 hrs. The absorbance of each well was then measured at 490 nm and used to determine the metabolic activity of the cells in the presence of the test compound, relative to the control. IC50 values for the test compounds were extracted based on the results.
Note that the results for a 72 hr exposure in addition to the 96 hr exposure are shown for compound 49-TDW-29C in the H157 cells. […] FIG. 1 depicts the results of a 96 hr MTS dose response experiments for compound 46-TDW-23c in H157, A549, H82 and Beas2B cells. FIG. 2 depicts the results of a 96 hr MTS dose response experiments for compound 49-TDW-9 in H157, A549, H82 and Beas2B cells. FIG. 3 depicts the results of a 96 hr MTS dose response experiments for compound 42-TDW-21c in H157, A549, H82 and Beas2B cells. FIG. 4 depicts the results of a 96 hr MTS dose response experiments for compound 46-TDW-19c in H157, A549, H82 and Beas2B cells. FIG. 5 depicts the results of a 96 hr MTS dose response experiments for compound 49-TDW-17c in H157, A549, H82 and Beas2B cells. FIG. 6 depicts the results of a 96 hr MTS dose response experiments for compound 40-TDW-37 in H157, A549, H82 and Beas2B cells. FIG. 7 depicts the results of a 96 hr MTS dose response experiments for compound 42-TDW-4 in H157, A549, H82 and Beas2B cells. FIG. 8 depicts the results of a 96 hr MTS dose response experiments for compound 49-TDW-29c in H157, A549, H82 and Beas2B cells. FIG. 9 depicts the results of a 96 hr MTS dose response experiments for compound 49-TDW-32c in H157, A549, H82 and Beas2B cells. FIG. 10 depicts the results of a 96 hr MTS dose response experiments for compound 46-TDW-35c in H157, A549, H82 and Beas2B cells. FIG. 11 depicts the results of a 96 hr MTS dose response experiments for compound 39-TDW-3 in H157, A549, and H82 cells. FIG. 12 depicts the results of a 96 hr MTS dose response experiments for compound 39-TDW-12c in […], and A549 cells. FIG. 13 depicts the results of a 96 hr MTS dose response experiments for compound 39-TDW-20c in H157, and H82 cells. FIG. 14 depicts the results of a 96 hr MTS dose response experiments for compounds 39-TDw-47c and 39-TDW-43 in H157 cells. FIG. 15 depicts the results of a 96 hr MTS dose response experiments for compounds 42-TDW-9, 42-TDW-4c/6, 40-TDW-35, 42-TDW-38 and BENSpm in H157 cells. FIG. 16 depicts the results of a 96 hr MTS dose response experiments for compounds 46-TDW-34c, 42-TDW-12, 40-TDW-48, 46-TDW-44c and BENSpm in H157 cells. FIG. 17 depicts the results of a 96 hr MTS dose response experiments for compounds 42-TDW-20c, 46-TDW-22, 46-TDW-39, 49-TDW-29c and BENSpm in H157 cells. FIG. 18 depicts the results of a 96 hr MTS dose response experiments for compounds 39-TDW-43, 42-TDW-48c, 46-TDW-9, 46-TDW-23c and BENSpm in H157 cells. FIG. 19 depicts the results of a 96 hr MTS dose response experiments for compounds 42-TDW-35c, 46-TDW-44 and BENSpm in H157 cells.

[4] = 10 uM, 24 hr, inc = increased, dec = decrease, N/C = no change
[5] = Homo sapiens, NCI-H157, 96 hr exposure

| IC50 [3, 5] | SMILES | further results |
| --- | --- | --- |
| – | CCCCNCCCNCCCNCCCN [ZQW-16c] | Polyamine Level [1, 4]: slowly inc; Polyamine Level ([2]; 0-10 uM): slight inc; Polyamine Level ([2]; 10 uM): dec ~50% |
| – | CCNCCCN(CCCN)CCCCCCCNCCCN [ZQW-27-9] | Polyamine Level [1, 4]: N/C; Polyamine Level ([2]; 10 uM): dec |
| > 50 µM | CCNCCCNCCCCCNCCCNCC [44-DHEJ-48C] | – |
| – | CCNCCCN(CCCN)CCCCCCCNCCCNCC1CCCCCC1 [ZQW-27-11C] | Polyamine Level ([1]; 10 uM, 96 hr): N/C; Polyamine Level ([2]; 10 uM): dec ~50% |
| > 10 µM | NCCCCCNCCCNCCCNCCCCN [YZ33035] | – |
| > 29 µM | Fc1cc(F)c(CNCCCNCCCNCCCNCc2cc(F)c(F)cc2F)cc1F [44-DHEJ-10C] | – |
| > 50 µM | CCNCCCNCCCNCCC(C)NCC1CC1 (centres unmarked) [55-DHEJ-37C] | – |
| > 50 µM | N=C(NCCCNCCCCNCCCNC(=N)NCC(c1ccccc1)c1ccccc1)NCC(c1ccccc1)c1ccccc1 [XBI-54-9B] | – |
| 1 µM | CCNCCCNCCCNCCCNC(C)C [DG-52-28] | – |
| – | NC1CCC(NCCCNCC2CC2)C1 (centres unmarked) [UNS-31-21c] | Polyamine Level [1, 4]: dec; Polyamine Level, Spm ([1]; 10 uM, 24 hr): same; Polyamine Level ([2]; 10 uM): slight inc |
| > 31 µM | CC(CCNCCCNCCC(C)NCc1cc(F)c(F)cc1F)NCc1cc(F)c(F)cc1F (centres unmarked) [44-DHEJ-5C] | – |
| – | C1CCC(CNCCCNCC2CCCC(CNCCCNCC3CCCCC3)C2)CC1 (centres unmarked) [UNS-31-7A] | Polyamine Level [1, 4]: slight dec; Polyamine Level ([2]; 10 uM): slight dec |
| – | c1ccc(-c2ccccc2CNCCCCNCCCNCc2ccccc2-c2ccccc2)cc1 [42-TDW-35c] | IC50 ([3]; 96 hr exposure): 1 to 5 µM |
| 5 to 10 µM | C/N=C(\NC)NCCCNCCCNCCCN/C(=N/C)NC [B182] | – |
| – | C#CC(=O)NCCCNCCCNCCCNC(=O)C#C [44-DHEJ-41] | IC50 ([3]; 96 hr exposure): 7.16 to 35.8 µM |
| 10 to 50 µM | N=C(NCCCNCCCNCCCNC(=N)NC(=N)NCCC(c1ccccc1)c1ccccc1)NC(=N)NCCC(c1ccccc1)c1ccccc1 [XBI-54-12D] | – |
| ~1 µM | CCNCCCNCCCNCCCCNCC1CC1 [YZ33049] | – |
| 10 to 50 µM | CNC(=N)NCCCNCCCNCCCNC(=N)NC [B179-1] | – |
| > 50 µM | NCCCCCCNCCCCCCNCCCc1nc2ccccc2[nH]1 [50-DHEJ-3C] | – |

| IC50 [3, 5] | SMILES | further results |
| --- | --- | --- |
| > 50 µM | CCC(CC)CNCCCCNCCCNCC(CC)CC [46-TDW-12] | – |
| – | CC(C)=CCNCCCNCCCNCCCNCC=C(C)C [SV-53-18C2] | IC50 ([3]; 96 hr exposure): 10 to 50 µM |
| 10 to 50 µM | N=C(NCCCNCCCNCCCNC(=N)NC(=N)NCC(c1ccccc1)c1ccccc1)NC(=N)NCC(c1ccccc1)c1ccccc1 [XBI-54-12C] | – |
| 5 to 10 µM | N=C(NCCCNCCCNCCCNC(=N)Nc1ccccc1)Nc1ccccc1 [B188-2] | – |
| 5 to 10 µM | CCNCCCNCCCCNCCC(c1ccccc1)c1ccccc1 [42-TDW-40c] | – |
| 10 to 50 µM | CCNCCCNCCCCCNCCCNCC(C)CC (centres unmarked) [51-DHEJ-A] | – |
| 1 to 10 µM | CCCCNCCCCNCCCCNCCCNCC [YZ33049c] | – |
| > 10 µM | CCNCCCNCCCNCCCCN [YZ33046] | – |
| 5 to 10 µM | CNC(=N)NCCCNCCCCCCCNCCCNC(=N)NC [B181] | – |
| > 10 µM | NCCCCCNCCCNCCCNCCCCCN [YZ33041] | – |
| – | CCC(CC)CNCCCNCCCNCCCNCC(CC)CC [40-TDW-28] | IC50 ([3]; 96 hr exposure): 10 to 50 µM |
| 10 to 50 µM | N=C(NCCCNCCCCNCCCNC(=N)NC(=N)NCCC(c1ccccc1)c1ccccc1)NC(=N)NCCC(c1ccccc1)c1ccccc1 [XBI-54-13D] | – |
| > 50 µM | CCCCNC(C)CCNCCCCCCCNCCC(C)NCC (centres unmarked) [51-DHEJ-49C] | – |
| > 50 µM | CCNCCCNCCCNCCC(C)N (centres unmarked) [55-DHEJ-7C] | – |
| > 50 µM | CCNCCCN(CCCNCC)CCCNCC [55-DHEJ-31C] | – |
| 21.9 µM | O=C(CCc1nc2ccccc2[nH]1)NCCCNCCCNCCCNC(=O)CCc1nc2ccccc2[nH]1 [44-DHEJ-38] | – |
| > 50 µM | N=C(NCCCNCCCCNCCCNC(=N)NCCC(c1ccccc1)c1ccccc1)NCCC(c1ccccc1)c1ccccc1 [XBI-54-8B] | – |
| 1 to 5 µM | CCNCCCNCCCCCNCCCN [44-DHEJ-49] | – |
| > 50 µM | CC(N)CCNCCCNCc1ccc(-c2ccccc2)cc1 (centres unmarked) [55-DHEJ-26] | – |

| IC50 [3, 5] | SMILES | further results |
| --- | --- | --- |
| > 50 µM | COc1cc(C(C)(C)C)c(C(C)(C)C)cc1CNC(C)CCNCCCNCCC(C)NCc1cc(C(C)(C)C)c(C(C)(C)C)cc1OC (centres unmarked) [51-DHEJ-8] | – |
| > 26.1 µM | O=C(NCCCNCCCNCCCNC(=O)c1nc2ccccc2[nH]1)c1nc2ccccc2[nH]1 [44-DHEJ-40C] | – |
| ~1 µM | CCNCCCCNCCCNCCCNCC [YZ33050c] | – |
| > 50 µM | CCNCCCNCCCNCCCCCN [51-DHEJ-C] | – |
| – | CCCCNCCCNCCCNCCCNCC [ZQW-19] | Polyamine Level ([1]; 1 uM, 24 hr): N/C; Polyamine Level [1, 4]: dec ~50%; Polyamine Level ([2]; 0-10 uM): slow dec; Polyamine Level ([2]; 10 uM): dec ~50% |
| 10 to 50 µM | CC(CCNCCCCCCCNCCC(C)NCC(F)(F)F)NCC(F)(F)F (centres unmarked) [51-DHEJ-18] | – |
| > 50 µM | CCNCCCNCCCCC(C)NCCCNCC (centres unmarked) [55-DHEJ-24C] | – |
| > 50 µM | CCNCCCCCNCCCNCCCNCC [51-DHEJ-B] | – |
| 0.5 to 1 µM | CCNCCCNCCCNCCCNC(C)CC (centres unmarked) [DG-52-27C] | – |
| 10 to 50 µM | N=C(NCCCNCCCCNCCCNC(=N)NC(=N)NCC(c1ccccc1)c1ccccc1)NC(=N)NCC(c1ccccc1)c1ccccc1 [XBI-54-14B] | – |
| – | CCNCCCNCCCNCCCNCC [BENSpm, reference compound] | Polyamine Level [1, 4]: N/C |
| 50 µM | N=C(NCCCNCCCCCCCNCCCNC(=N)Nc1ccccc1)Nc1ccccc1 [B205′-1] | – |
| 10 to 50 µM | CC(CCNCCCNCCC(C)NCC1CC1)NCC1CC1 (centres unmarked) [55-DHEJ-35C] | – |
| > 50 µM | CC(C)CNCCCNCCCNCCCNCC(C)C [DG-52-29C] | – |
| – | Cc1c(CNCCCNCCCNCCCNCc2cccc(-c3ccccc3)c2C)cccc1-c1ccccc1 [40-TDW-48] | IC50 ([3]; 96 hr exposure): 1 to 5 µM |
| – | CCCCNCCCNCCCNCCCNCCCC [ZQW-14c] | Polyamine Level [1, 4]: slowly dec; Polyamine Level ([2]; 10 uM): slowly dec |
| – | C1CCCC(CNCCCNCCCNCCCNCC2CC2)CC1 [CPCHENSpm] | Polyamine Level [1, 4]: slight dec; Polyamine Level, Spm ([1]; 10 uM, 24 hr): inc; Polyamine Level ([2]; 10 uM): slight inc, and N/C |
| 10 to 50 µM | N=C(NCCCNCCCCCCCNCCCNC(=N)NC(=N)NCC(c1ccccc1)c1ccccc1)NC(=N)NCC(c1ccccc1)c1ccccc1 [XBI-54-11C] | – |
| 10 to 50 µM | N=C(NCCCNCCCCCCCNCCCNC(=N)NC(=N)NCCC(c1ccccc1)c1ccccc1)NC(=N)NCCC(c1ccccc1)c1ccccc1 [XBI-54-13B] | – |

| SMILES | IC50 [3, 5] | further results |
| --- | --- | --- |
| c1cc2ccc3cccc4c(CCCCNCCCNCCCNCCCNCCCCc5cc6cccc7ccc8cccc5c8c76)cc(c1)c2c34 [40-TDW-26c] | 10 to 50 µM | – |

Reference: patent US8148577B2, “Polyamines useful as anti-parasitic and anti-cancer therapeutics and as lysine-specific demethylase inhibitors” (The Johns Hopkins University, priority 2005, dated 2012)
